Reference: patent EP4696306A1, “ADENOSINE TRIPHOSPHATE SECRETION INHIBITOR, HEPATIC STELLATE CELL ACTIVATION INHIBITOR, HEPATIC STELLATE CELL DEACTIVATOR, HEPATIC FIBROSIS THERAPEUTIC AGENT, NON-ALCOHOLIC STEATOHEPATITIS THERAPEUTIC AGENT, PSORIASIS THERAPEUTIC AGENT, AND USE OF COMPOUND FOR PRODUCING ADENOSINE TRIPHOSPHATE …” (KURUME UNIVERSITY, priority 2023, dated 2024)

Columns and labels:
[1] = test system: ATP transport activity in isolated chromaffin granule membranes; test: ATP transport (3H-ATP uptake) in chromaffin granule membrane vesicles; assay type: biochemical, bovine
Procedure: Chromaffin granule membranes were prepared from adrenal glands collected from slaughtered cattle according to Reference A (Nathan Nelson et al., 1988, Chromaffin Granule Proton Pump, Methods in Enzymology, 157, 619-633). Chromaffin granule membranes prepared by sucrose density gradient centrifugation were suspended in 2 ml of SME buffer (20 mM MOPS-tris (pH 7.0), 0.3 M sucrose, 5 mM EDTA, 10 µg/ml leupeptin, and 10 µg/ml pepstatin) + 25% glycerol, and the resulting suspension was aliquoted and stored at -80°C. Under these conditions, the ATP transport activity, the V-ATPase activity, and the catecholamine transport activity remain fully active for at least one year.
An ATP transport inhibition experiment for the chromaffin granule membrane was carried out according to Reference B (Yoshinori Moriyama et al., 2022, Is the vesicular nucleotide transporter a molecular target of eicosapentaenoic acid?, Frontiers in Pharmacology, 103389). About 20 µg of chromaffin granule membranes were added to 0.5 ml of measurement buffer (20 mM MOPS-tris (pH 7.0), 0.3 M sucrose, 5 mM potassium chloride, 5 mM magnesium acetate, 5 mM creatine phosphate, 10 units of creatine kinase, and 1 mM ^3[H]-ATP [15 KBq/assay]), followed by incubation at 30°C for 1 hour. Through a Millipore MCE membrane filter with a pore size 0.45 µm, 0.2 ml of the reaction liquid was filtered by suction. Thereafter, the filter was washed with 10 ml of 20 mM MOPS-tris (pH 7.0), 0.3 M sucrose, 5 mM potassium chloride, and 5 mM magnesium acetate, and dissolved in 10 ml of Clear-sol II (manufactured by Nacalai Tesque, Inc.). The radioactivity was then measured using a liquid scintillation counter (N = 3).
The reaction was initiated by adding 50 mM ^3[H]-ATP to a final concentration of 1 mM. The 50 mM ^3[H]-ATP was prepared by mixing an ATP-tris solution (manufactured by Sigma-Aldrich) with [2,8-^3H] adenosine triphosphate tetrasodium salt (26.0 Ci/mmol) (manufactured by New England Nuclear). PEP was used as a test reagent, and pyruvic acid was used as a negative control. Five minutes before the addition of ATP, PEP or pyruvic acid, as a solution in 20 mM MOPS-tris (pH 7.0), 0.3 M sucrose, 5 mM potassium chloride, and 5 mM magnesium acetate, was added to the measurement liquid to a final PEP concentration of 0.02, 0.05, 0.1, 0.2, 0.4, or 1 mM, or to a final pyruvic acid concentration of 0.5 or 1 mM.
Chromaffin granule membrane vesicles were prepared in the same manner as in Example 5, and uptake of radiolabeled ATP into the vesicles was measured. Transport activity of catecholamine (dopamine) and ATP-dependent proton transport by V-ATPase were also measured in the same manner as in Example 5.

human VNUT = target: T1, human VNUT (Homo sapiens, UniProt Q9BYT1); test: ATP loading into reconstituted liposomes containing human VNUT; assay type: biochemical; details: pyruvic acid at a 50-fold higher concentration (5 mM)
T1 construct: made in house; host or cells: HIGH FIVE insect cells (baculovirus)
T1 sequence (Q9BYT1 1-430 isoform Q9BYT1-2): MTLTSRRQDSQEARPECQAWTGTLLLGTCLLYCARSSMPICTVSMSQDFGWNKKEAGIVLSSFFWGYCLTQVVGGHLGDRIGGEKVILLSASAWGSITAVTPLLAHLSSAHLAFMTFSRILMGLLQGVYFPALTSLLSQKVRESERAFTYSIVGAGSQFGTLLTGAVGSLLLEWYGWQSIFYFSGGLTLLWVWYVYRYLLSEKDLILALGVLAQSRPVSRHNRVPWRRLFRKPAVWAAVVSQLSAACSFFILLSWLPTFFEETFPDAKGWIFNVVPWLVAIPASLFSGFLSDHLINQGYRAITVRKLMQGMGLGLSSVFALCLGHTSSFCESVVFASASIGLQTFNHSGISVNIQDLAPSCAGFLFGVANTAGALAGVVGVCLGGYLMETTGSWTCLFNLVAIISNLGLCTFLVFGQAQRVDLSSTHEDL
Procedure: Human VNUT was prepared according to Reference C (Keisuke Sawada et al., 2008, Identification of a vesicular nucleotide transporter, Proc Natl Acad Sci USA, vol. 105, no. 15, 5683-5686). Insect cells (HIGH FIVE cells) were infected at MOI = 1 with a baculovirus in which a human VNUT expression system was incorporated. HIGH FIVE cells expressing VNUT (1 × 10^8 cells) were collected with a cell scraper, and suspended at about 8 mg/ml in 20 mM Tris-HCl (pH 8.0), 0.1 M potassium acetate, 10% glycerol, 10 µg/ml pepstatin A, and 10 µg/ml leupeptin, followed by homogenization of the cells using an ultrasonic generator (manufactured by Sonics Materials). […]
VNUT (protein, 20 µg) prepared by the above method was mixed with liposomes (lipid weight, 200 µg), and left to stand at -80°C for 30 minutes. […] A major band was detected at a position of about 68 kDa. The proteins after the electrophoresis with the ePAGEL E-T520 2-10% gradient gel (manufactured by Atto) were electrotransferred to a nitrocellulose sheet, and analyzed by Western blotting using an anti-human SLC17A9 (VNUT) rabbit polyclonal antibody (manufactured by Proteintech).
The ATP transport activity of the VNUT-containing reconstituted liposomes prepared by the above method was measured. […]

CC(=O)C(=O)O [pyruvic acid]
inhibitory activity on ATP transport ([1]; concentration not given): no inhibitory activity
inhibition of ATP transport ([1]; concentrations of up to 1 mM): did not inhibit ATP transport
ATP loading into liposomes (human VNUT): did not inhibit ATP loading into liposomes
